Measured values published in patent publication US6391505B1, “Phthalocyanine crystal and its production, and electrophotosensitive material using the same” (Kyocera Mita Corporation, priority 1999, dated 2002).

What was measured:
[1] = Reduction potential of organic acceptor compound by cyclic voltammetry; assay type: physicochemical; conditions: for Reduction potential [V] of organic acceptor: organic acceptor added when producing the phthalocyanine crystal, reference electrode (Ag+/Ag); for Reduction potential [V] / Redox potential: organic acceptor; for Reduction Potential: to reference electrode (Ag+/Ag), cyclic voltammetry in dichloromethane
Description: The reduction potential of the organic acceptor compound was determined by a cyclic voltammetry. The measurement conditions are shown below.
Work electrode: glassy carbon
Counter electrode: platinum
Reference electrode: silver/silver nitrate (0.1 mol/1AgNO3-acetonitrile solution)
Electrolyte: tetra-n-butylammonium perchlorate (0.1 mol)
Specimen: acceptor compound (0.001 mol)
Solvent: dichloromethane (1 L)

[2] = Solubility of organic acceptor compound in tetrahydrofuran (solvent of coating solution); assay type: physicochemical; conditions: for Solubility / Solubility/THF [% by weight]: THF; for Solubility/THF [% by weight]: organic acceptor; for Solubility/THF [% by weight] of organic acceptor: in THF
Source text: Specific examples of the organic acceptor compound are shown below.

Reduction potential [V] of organic acceptor ([1]; Table 3) [V] | Reduction potential [V] of organic acceptor ([1]; Table 5) [V] | Reduction potential [V] ([1]; Table 1) | Reduction potential [V] ([1]; Table 2) | Reduction Potential [1] [V] | Solubility [2] [% by weight] | Solubility/THF [% by weight] ([2]; Table 1) | Solubility/THF [% by weight] ([2]; Table 2) | Solubility/THF [% by weight] ([2]; Table 4) | Solubility/THF [% by weight] ([2]; Table 6) | Solubility/THF [% by weight] of organic acceptor ([2]; Table 3) [% by weight] | Solubility/THF [% by weight] of organic acceptor ([2]; Table 5) [% by weight] | SMILES | Redox potential ([1]; Table 4) | Redox potential ([1]; Table 6)
−0.95 | −0.95 | −0.95 | −0.95 | −0.95 | 3 | 3 | 3 | 3 | 3 | 3 | 3 | O=C1C(Oc2ccccc2)=C(Oc2ccccc2)C(=O)c2ccccc21 [AC-1] | −0.95 | −0.95
−0.85 | −0.85 | −0.85 | −0.85 | −0.85 | 3 | 3 | 3 |  |  | 3 | 3 | CC(C)(C)C1=CC(=C2C=C(C(C)(C)C)C(=O)C(C(C)(C)C)=C2)C=C(C(C)(C)C)C1=O [AC-2] |  | 
 |  |  |  | −1.31 | 11 |  |  | 11 | 11 |  |  | Cc1ccc(C(=O)c2ccc(C)cc2)cc1 [AC-8, reference compound] | −1.31 | −1.31
−1.28 | −1.28 | −1.28 | −1.28 | −1.28 | 3 | 3 | 3 |  |  | 3 | 3 | O=C1NC(=O)c2ccccc21 [AC-4] |  | 
−0.85 | −0.85 | −0.85 | −0.85 | −0.85 | 1 | 1 | 1 |  |  | 1 | 1 | O=C1c2ccc3c4c(ccc(c24)C(=O)N1C1CCCCC1)C(=O)N(C1CCCCC1)C3=O [AC-3] |  | 

SMILES | Reduction potential [V] of organic acceptor ([1]; Table 3) [V] | Reduction potential [V] of organic acceptor ([1]; Table 5) [V] | Reduction potential [V] ([1]; Table 1) | Reduction potential [V] ([1]; Table 2) | Reduction Potential [1] [V] | Solubility [2] [% by weight] | Solubility/THF [% by weight] ([2]; Table 1) | Solubility/THF [% by weight] ([2]; Table 2) | Solubility/THF [% by weight] ([2]; Table 4) | Solubility/THF [% by weight] ([2]; Table 6) | Solubility/THF [% by weight] of organic acceptor ([2]; Table 3) [% by weight] | Solubility/THF [% by weight] of organic acceptor ([2]; Table 5) [% by weight] | Redox potential ([1]; Table 4) | Redox potential ([1]; Table 6)
O=C1OC(=O)c2ccccc21 [AC-5, reference compound] |  |  |  |  | −1.53 | 5 |  |  | 5 | 5 |  |  | −1.53 | −1.53
O=C(c1ccccc1)c1ccccc1 [AC-6, reference compound] |  |  |  |  | −1.32 |  |  |  |  |  |  |  | −1.32 | −1.32
